Experimental data reported in US20100190723A1, “PREVENTIVE OR THERAPEUTIC COMPOSITION FOR LIVER DISEASE” (priority 2007, published 2010).
Square brackets hold non-standard residues; d marks the D form. Ends that are not written are not given here. pGlu = O=C1CC[C@@H](C(=O)O)N1

Legend:
[1] = tested on: Hepatic Disorder Rat Model; test: Administration test using hepatic disorder rat model (D-galactosamine), intraperitoneal peptide (Test Example 1); assay type: in vivo; details: peptide 20 mg/kg intraperitoneally 1 hour before, Wistar rats; for GOT: blood GOT level 24 hours after D-galactosamine 800 mg/kg i.p., water control 391; for GPT: blood GPT level 24 hours after D-galactosamine 800 mg/kg i.p., water control 50
Description: (§1) Wistar rats (4- to 5-week old) were used for the experiment. Rats were preliminarily fed for a week with purified standard feeds and subjected to fasting for 4 hours. pyroGlu-Leu obtained in Production Example 2 and pyroGlu-Ile obtained in Production Example 3 were each dissolved in water at 10 mg/l ml, and the resulting solutions were administered intraperitoneally in amounts of 20 mg/kg each. D-galactosamine (Sigma) was administered intraperitoneally in an amount of 800 mg/kg 1 hour later. Rats were allowed to freely eat 4 hours after D-galactosamine administration. Each group consisted of 5 rats, and water was administered to the control group instead of the peptide of the present invention.
(§2) Blood was sampled from the rats 24 hours after D-galactosamine administration, and GOT and GPT levels in the blood were assayed to compare the degrees of hepatic disorders.
(§3) GOT and GPT levels were assayed in accordance with the JSCC standardization method (Hiroshi Miura, Japanese Journal of Clinical Medicine (Nippon Rinsho), 53-reprinted-266, 1995).

[2] = tested on: Hepatic Disorder Rat Model; test: Administration test using hepatic disorder rat model (D-galactosamine), oral peptide (Test Example 2); assay type: in vivo; details: peptide 40 mg/kg orally, Wistar rats; for GOT: blood GOT level 24 hours after D-galactosamine 800 mg/kg i.p., water control 2180; for GPT: blood GPT level 24 hours after D-galactosamine 800 mg/kg i.p., water control 391
Description: as §1, §2, §3
The test was carried out in the same manner as in Test Example 1. pyroGlu-Gln-Gln, pyroGlu-Gln, pyroGlu-Leu, or pyroGlu-Ile obtained in Production Example 5 was dissolved in water at 10 mg/l ml, and the resulting solution was administered orally to rats in amounts of 40 mg/kg.

For [pGlu]-Leu, the GOT [1] was 215 IU/L, the GPT [1] was 30 IU/L and the GOT [2] was 555 IU/L. It also gave a GPT [2] of 131 IU/L.

[pGlu]-Gln-Gln gave a GOT [2] of 524 IU/L and a GPT [2] of 100 IU/L.

For [pGlu]-Ile, the GOT [1] was 314 IU/L, the GPT [1] was 45 IU/L and the GOT [2] was 491 IU/L. It also gave a GPT [2] of 98 IU/L.

[pGlu]-Gln gave a GOT [2] of 509 IU/L and a GPT [2] of 124 IU/L.
